Experimental data reported in patent publication US20220089629A1, “AMORPHOUS SIALYLATED OLIGOSACCHARIDES” (GLYCOM A/S, priority 2019, published 2022).
Counter-ions that a name gives are not always drawn.

Assays:
[1] = pH measurement of aqueous solutions by pH-meter; format: physicochemical; conditions: for pH of aqueous stock solution: before pH adjustment
Description: When a pH value is referred to, it is measured by a pH-meter conventionally.
3′-SL Na-salt was made by bacterial fermentation and isolated in accordance with e.g. WO 2017/152918. An aqueous stock solution was made the concentration of which was 5.3 g/100 g, pH: 4.8.
Series A: a part of the above aqueous stock solution was adjusted to pH of 3.6 by addition of 1 M HCl-solution. The so-obtained solution was freeze-dried to give a white amorphous powder. The pH of its 5 w/w % solution was 3.9.
6′-SL Na-salt was made by bacterial fermentation and isolated in accordance with e.g. US 2018/0002363. An aqueous stock solution was made the concentration of which was 9.1 g/100 g, pH: 5.4.
Series A: a part of the above aqueous stock solution was adjusted to pH of 3.1 by addition of 1 M HCl-solution. The so-obtained solution was freeze-dried to give a white amorphous powder. The pH of its 5 w/w % solution was 3.5.

[2] = Forced heat stability test of freeze-dried amorphous 3′-SL samples, analysed by HPAEC-PAD; format: physicochemical
Description: Seven by one gram from each series, separately, was put into 4 ml glass vials and closed with screw lid containing teflon inliner (21 samples altogether). Three samples from each series were put into a 60° C. oven, and another three samples from each series were put into a 80° C. oven. One samples from each series was removed from the ovens after a time indicated below and kept in a freezer until analysis. The t=0 samples (one sample from each series) were kept in freezer during the entire time of the test.
The samples were analysed together after the longest incubation had finished by HPAEC-PAD on Carbopac PA-200 (3×250 mm) column using isocratic 75 mM NaOH+37.5 mM NaOAc eluent.

Compound: CC(=O)N[C@H]1[C@H]([C@H](O)[C@H](O)CO)O[C@@](O[C@H]2[C@@H](O)[C@@H](CO)O[C@@H](O[C@H]3[C@H](O)[C@@H](O)C(O)O[C@@H]3CO)[C@@H]2O)(C(=O)O)C[C@@H]1O (stereo partly drawn) [3′-SL Na-salt, 3′-sialyllactose]
- pH of aqueous stock solution ([1]; concentration 5.3 g/100 g): 4.8

Compound: CC(=O)N[C@H]1[C@H]([C@H](O)[C@H](O)CO)O[C@@](OC[C@H]2O[C@@H](O[C@H]3[C@H](O)[C@@H](O)[C@H](O)O[C@@H]3CO)[C@H](O)[C@@H](O)[C@H]2O)(C(=O)O)C[C@@H]1O [6′-SL Na-salt, 6′-sialyllactose]
- pH of aqueous stock solution ([1]; concentration 9.1 g/100 g): 5.4

Compound: CC(=O)N[C@H]1[C@H]([C@H](O)[C@H](O)CO)O[C@@](O[C@H]2[C@@H](O)[C@@H](CO)O[C@@H](O[C@H]3[C@H](O)[C@@H](O)C(O)O[C@@H]3CO)[C@@H]2O)(C(=O)O)C[C@@H]1O (stereo partly drawn) [Example 1 Series A, 3′-sialyllactose]
- content of 3′-O-sialyl-lactulose (ketose rearranged derivative of 3′-SL) in the sample ([2]; 60° C., 2 weeks, solid in closed vial, listed as sample A): 1.66 area %
- content of 3′-O-sialyl-lactulose (ketose rearranged derivative of 3′-SL) in the sample ([2]; 60° C., 4 weeks, solid in closed vial, listed as sample A): 2.12 area %
- content of 3′-O-sialyl-lactulose (ketose rearranged derivative of 3′-SL) in the sample ([2]; 60° C., 6 weeks, solid in closed vial, listed as sample A): 1.96 area %
- content of 3′-O-sialyl-lactulose (ketose rearranged derivative of 3′-SL) in the sample ([2]; 80° C., 1 weeks, solid in closed vial, listed as sample A): 1.91 area %
- content of 3′-O-sialyl-lactulose (ketose rearranged derivative of 3′-SL) in the sample ([2]; 80° C., 2 weeks, solid in closed vial, listed as sample A): 1.97 area %
- content of 3′-O-sialyl-lactulose (ketose rearranged derivative of 3′-SL) in the sample ([2]; 80° C., 4 weeks, solid in closed vial, listed as sample A): 2.24 area %
- content of 3′-O-sialyl-lactulose (ketose rearranged derivative of 3′-SL) in the sample ([2]; t = 0, kept in freezer, listed as sample A): 1.75 area %

Compound: CC(=O)N[C@H]1[C@H]([C@H](O)[C@H](O)CO)O[C@@](O[C@H]2[C@@H](O)[C@@H](CO)O[C@@H](O[C@H]3[C@H](O)[C@@H](O)C(O)O[C@@H]3CO)[C@@H]2O)(C(=O)O)C[C@@H]1O (stereo partly drawn) [Example 1 Series B, 3′-sialyllactose]
- content of 3′-O-sialyl-lactulose (ketose rearranged derivative of 3′-SL) in the sample ([2]; 60° C., 2 weeks, solid in closed vial, listed as sample B): 2.16 area %
- content of 3′-O-sialyl-lactulose (ketose rearranged derivative of 3′-SL) in the sample ([2]; 60° C., 4 weeks, solid in closed vial, listed as sample B): 2.16 area %
- content of 3′-O-sialyl-lactulose (ketose rearranged derivative of 3′-SL) in the sample ([2]; 60° C., 6 weeks, solid in closed vial, listed as sample B): 2.31 area %
- content of 3′-O-sialyl-lactulose (ketose rearranged derivative of 3′-SL) in the sample ([2]; 80° C., 1 weeks, solid in closed vial, listed as sample B): 2.34 area %
- content of 3′-O-sialyl-lactulose (ketose rearranged derivative of 3′-SL) in the sample ([2]; 80° C., 2 weeks, solid in closed vial, listed as sample B): 2.39 area %
- content of 3′-O-sialyl-lactulose (ketose rearranged derivative of 3′-SL) in the sample ([2]; 80° C., 4 weeks, solid in closed vial, listed as sample B): 2.88 area %
- content of 3′-O-sialyl-lactulose (ketose rearranged derivative of 3′-SL) in the sample ([2]; t = 0, kept in freezer, listed as sample B): 1.77 area %

Compound: CC(=O)N[C@H]1[C@H]([C@H](O)[C@H](O)CO)O[C@@](O[C@H]2[C@@H](O)[C@@H](CO)O[C@@H](O[C@H]3[C@H](O)[C@@H](O)C(O)O[C@@H]3CO)[C@@H]2O)(C(=O)O)C[C@@H]1O (stereo partly drawn) [Example 1 Series C, 3′-sialyllactose]
- content of 3′-O-sialyl-lactulose (ketose rearranged derivative of 3′-SL) in the sample ([2]; 60° C., 2 weeks, solid in closed vial, listed as sample C): 2.67 area %
- content of 3′-O-sialyl-lactulose (ketose rearranged derivative of 3′-SL) in the sample ([2]; 60° C., 4 weeks, solid in closed vial, listed as sample C): 2.96 area %
- content of 3′-O-sialyl-lactulose (ketose rearranged derivative of 3′-SL) in the sample ([2]; 60° C., 6 weeks, solid in closed vial, listed as sample C): 3.03 area %
- content of 3′-O-sialyl-lactulose (ketose rearranged derivative of 3′-SL) in the sample ([2]; 80° C., 1 weeks, solid in closed vial, listed as sample C): 2.95 area %
- content of 3′-O-sialyl-lactulose (ketose rearranged derivative of 3′-SL) in the sample ([2]; 80° C., 2 weeks, solid in closed vial, listed as sample C): 3.38 area %
- content of 3′-O-sialyl-lactulose (ketose rearranged derivative of 3′-SL) in the sample ([2]; 80° C., 4 weeks, solid in closed vial, listed as sample C): 4.61 area %
- content of 3′-O-sialyl-lactulose (ketose rearranged derivative of 3′-SL) in the sample ([2]; t = 0, kept in freezer, listed as sample C): 1.81 area %

Compound: CC(=O)N[C@H]1[C@H]([C@H](O)[C@H](O)CO)O[C@@](OC[C@H]2O[C@@H](O[C@H]3[C@H](O)[C@@H](O)[C@H](O)O[C@@H]3CO)[C@H](O)[C@@H](O)[C@H]2O)(C(=O)O)C[C@@H]1O [Example 2 Series D, 6′-sialyllactose]
- pH of the 5 w/w % solution of the freeze-dried amorphous powder ([1]; 5 w/w % aqueous solution after freeze-drying): 6.2
